Assay results: patent US20240381872A1, “SUBSTITUTED 2,3-DIHYDRO[1,3]THIAZOLO[4,5-B]PYRIDINES, SALTS THEREOF AND THEIR USE AS HERBICIDALLY ACTIVE SUBSTANCES” (BAYER AKTIENGESELLSCHAFT, priority 2021, published 2024)

What was measured:
Type in all cases: in vivo
[1] = test system: Alopecurus myosuroides (ALOMY); assay: Herbicidal pre-emergence action, section A (Table A2); conditions: application rate 1280 g/ha; visual grading after ca. 3 weeks vs untreated controls
Summary of the method: (§1)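 Read-out is visual herbicidal effect in percent (100% = plants died, 0% = as control), graded ca. 3 weeks after treatment. Test compounds as WP or EC were applied to covering soil over sown seeds with 0.5% additive, 600 l water per hectare; greenhouse growth.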

[2] = test system: Digitaria sanguinalis (DIGSA); assay: Herbicidal pre-emergence action, section A (Table A12); conditions: application rate 320 g/ha
Summary of the method: as §1

[3] = test system: Echinochloa crus-galli (ECHCG); assay: Herbicidal pre-emergence action, section A (Table A3); conditions: visual grading after ca. 3 weeks vs untreated controls
Summary of the method: as §1

[4] = test system: Setaria viridis (SETVI); assay: Herbicidal pre-emergence action, section A (Table A8); conditions: application rate 1280 g/ha
Summary of the method: as §1

[5] = test system: Amaranthus retroflexus (AMARE); assay: Herbicidal pre-emergence action, section A (Table A11); conditions: application rate 320 g/ha
Summary of the method: as §1

[6] = test system: Veronica persica (VERPE); assay: Herbicidal pre-emergence action, section A (Table A10); conditions: application rate 1280 g/ha
Summary of the method: as §1

[7] = test system: Abutilon theophrasti (ABUTH); assay: Herbicidal pre-emergence action, section A (Table A1); conditions: visual grading after ca. 3 weeks vs untreated controls
Source text: Seeds of mono- and dicotyledonous weed plants were sown in plastic pots (double sowings with one species of mono- and one species of dicotyledonous weed plants per pot), in sandy loam, and covered with soil. The compounds according to the invention, formulated in the form of wettable powders (WP) or as emulsifiable concentrates (EC), were applied to the surface of the covering soil as aqueous suspension or emulsion, with the addition of 0.5% of an additive, at an application rate of 600 l of water per hectare (converted). Following treatment, the pots were placed in a greenhouse and kept under optimum growth conditions for the test plants. The visual grading of the damage to the test plants was carried out after ca. 3 weeks in comparison to untreated controls (herbicidal effect in percent (%): 100% effect=plants have died off, 0% effect=as control plants).

[8] = test system: Matricaria inodora (MATIN); assay: Herbicidal pre-emergence action, section A (Table A6); conditions: visual grading after ca. 3 weeks vs untreated controls
Summary of the method: as §1

[9] = test system: Lolium rigidum (LOLRI); assay: Herbicidal pre-emergence action, section A (Table A5); conditions: visual grading after ca. 3 weeks vs untreated controls
Summary of the method: as §1

[10] = test system: Stellaria media (STEME); assay: Herbicidal pre-emergence action, section A (Table A9); conditions: application rate 320 g/ha
Summary of the method: as §1

[11] = test system: Poa annua (POAAN); assay: Herbicidal pre-emergence action, section A (Table A7); conditions: application rate 320 g/ha; visual grading after ca. 3 weeks vs untreated controls
Summary of the method: as §1

[12] = test system: Matricaria inodora (MATIN); assay: Herbicidal post-emergence action, section B (Table B6); conditions: application rate 1280 g/ha; visual rating about 3 weeks after treatment vs untreated controls
Experimental: (§2) Seeds of mono- and dicotyledonous weed plants were placed in plastic pots in sandy loam soil (doubly sown with in each case one species of mono- or dicotyledonous weed plants per pot), covered with soil and cultivated in a greenhouse under controlled growth conditions. 2 to 3 weeks after sowing, the test plants were treated at the one-leaf stage. The compounds of the invention, formulated in the form of wettable powders (WP) or as emulsion concentrates (EC), were applied onto the green parts of the plants as aqueous suspension or emulsion with addition of 0.5% additive at a water application rate of 600 liters per hectare (converted). After the test plants had been kept in the greenhouse under optimum growth conditions for about 3 weeks, the activity of the preparations was rated visually in comparison to untreated controls. For example, 100% activity=the plants have died, 0% activity=like control plants.

[13] = test system: Echinochloa crus-galli (ECHCG); assay: Herbicidal post-emergence action, section B (Table B3); conditions: application rate 1280 g/ha, rated visually after about 3 weeks
Summary of the method: (§3)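 Activity was scored visually as percent of untreated controls about 3 weeks after spraying, where 100% meant dead plants and 0% meant no difference. Plants were treated at the one-leaf stage with WP or EC formulations in water containing 0.5% additive, applied at 600 liters per hectare.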

[14] = test system: Setaria viridis (SETVI); assay: Herbicidal post-emergence action, section B (Table B8); conditions: application rate 1280 g/ha; visual rating about 3 weeks after treatment vs untreated controls
Summary of the method: as §3

[15] = test system: Poa annua (POAAN); assay: Herbicidal post-emergence action, section B (Table B7); conditions: visual rating about 3 weeks after treatment vs untreated controls
Summary of the method: as §3

[16] = test system: Kochia scoparia (KCHSC); assay: Herbicidal pre-emergence action, section A (Table A4); conditions: visual grading after ca. 3 weeks vs untreated controls
Summary of the method: as §1

[17] = test system: Glycine max (GLXMA); assay: Pre-emergence effects on crop plants, section D (Table D4); conditions: application rate 80 g/ha; visual grading after ca. 3 weeks
Source text: (§4) Seeds of mono- and dicotyledonous weed plants and crop plants were sown, in plastic or organic planting pots, in sandy loam and covered with soil. The compounds according to the invention, formulated in the form of wettable powders (WP) or as emulsifiable concentrates (EC), were applied to the surface of the covering soil as aqueous suspension or emulsion, with the addition of 0.5% of an additive, at an application rate of 600 l of water/ha (converted).
(§5) Following treatment, the pots were placed in a greenhouse and kept under optimum growth conditions for the test plants. The visual grading of the damage to the test plants was carried out after ca. 3 weeks in comparison to untreated controls (herbicidal effect in percent (%): 100% effect=plants have died off, 0% effect=as control plants).
(§6) Tables D1 to D5 below show the effects of various compounds of the general formula (I) according to Table 1 on various crop plants and an application rate corresponding to 320 g/ha or below obtained by the experimental procedure mentioned above in Biological Examples, Section C.

[18] = test system: Brassica napus (BRSNW); assay: Post-emergence effects on crop plants, section F (Table F5); conditions: Brassica napus, 504 h, application rate 320 g/ha, read-out: post-emergence activity against BRSNW in %
Source text: (§7) Seeds of mono- and dicotyledonous weed plants and crop plants were sown, in plastic or organic planting pots, in sandy loam, covered with soil and grown in a greenhouse under controlled growth conditions. 2 to 3 weeks after sowing, the test plants were sprayed in the single-leaf stage. The compounds according to the invention, formulated in form of wettable powders (WP) or as emulsifiable concentrates (EC), were sprayed onto the green plant parts as aqueous suspension or emulsion, with the addition of 0.5% of an additive, at an application rate of 600 l of water/ha (converted). The test plants were placed in the greenhouse for ca. 3 weeks under optimum growth conditions, and then the effect of the preparations was assessed visually in comparison with untreated controls (herbicidal effect in percent (%): 100% effect=plants have died off, 0% effect=as control plants). Tables F1 to F4 below show the effects of selected compounds of the general formula (I) according to Table 1 on various crop plants and an application rate corresponding to 320 g/ha or below obtained by the experimental procedure mentioned above.

[19] = test system: Zea mays (ZEAMX); assay: Post-emergence effects on crop plants, section F (Table F1); conditions: Zea mays, 504 h, application rate 320 g/ha, read-out: post-emergence activity against ZEAMX in %
Source text: as §7

[20] = test system: Glycine max (GLXMA); assay: Post-emergence effects on crop plants, section F (Table F4); conditions: Glycine max, 504 h, application rate 320 g/ha, read-out: post-emergence activity against GLXMA in %
Source text: as §7

[21] = test system: Brassica napus (BRSNW); assay: Pre-emergence effects on crop plants, section D (Table D5); conditions: application rate 80 g/ha; visual grading after ca. 3 weeks
Source text: as §4, §5, §6

[22] = test system: Triticum aestivum (TRZAS); assay: Pre-emergence effects on crop plants, section D (Table D2); conditions: application rate 320 g/ha; visual grading after ca. 3 weeks
Source text: as §4, §5, §6

[23] = test system: Triticum aestivum (TRZAS); assay: Post-emergence effects on crop plants, section F (Table F2); conditions: Triticum aestivum, 504 h, application rate 320 g/ha, read-out: post-emergence activity against TRZAS in %
Source text: as §7

[24] = test system: Zea mays (ZEAMX); assay: Pre-emergence effects on crop plants, section D (Table D1); conditions: application rate 320 g/ha; visual grading after ca. 3 weeks
Source text: as §4, §5, §6

[25] = test system: Amaranthus retroflexus (AMARE); assay: Herbicidal post-emergence action, section B (Table B11); conditions: application rate 1280 g/ha; visual rating about 3 weeks after treatment vs untreated controls
Summary of the method: as §3

[26] = test system: Stellaria media (STEME); assay: Herbicidal post-emergence action, section B (Table B9); conditions: application rate 320 g/ha; visual rating about 3 weeks after treatment vs untreated controls
Summary of the method: as §3

[27] = test system: Abutilon theophrasti (ABUTH); assay: Herbicidal post-emergence action, section B (Table B1); conditions: application rate 320 g/ha, rated visually after about 3 weeks
Summary of the method: as §3

[28] = test system: Lolium rigidum (LOLRI); assay: Herbicidal post-emergence action, section B (Table B5); conditions: application rate 1280 g/ha; visual rating about 3 weeks after treatment vs untreated controls
Experimental: as §2

[29] = test system: Kochia scoparia (KCHSC); assay: Herbicidal post-emergence action, section B (Table B4); conditions: application rate 1280 g/ha; visual rating about 3 weeks after treatment vs untreated controls
Summary of the method: as §3

## COC(=O)CS(=O)(=O)N1CSc2cc(C)c(-c3ccccc3F)nc21 [Example I-121]
[1]
  pre-emergence activity against ALOMY in %: 90%
[2]
  pre-emergence activity against DIGSA in %: 100%
[3]; application rate 320 g/ha
  pre-emergence activity against ECHCG in %: 100%
[4]
  pre-emergence activity against SETVI in %: 100%
[5]
  pre-emergence activity against AMARE in %: 90%
[6]
  pre-emergence activity against VERPE in %: 90%
[7]; application rate 1280 g/ha
  pre-emergence activity against ABUTH in %: 90%
[8]; application rate 320 g/ha
  pre-emergence activity against MATIN in %: 90%
[9]; application rate 320 g/ha
  pre-emergence activity against LOLRI in %: 100%
[10]
  pre-emergence activity against STEME in %: 90%
[11]
  pre-emergence activity against POAAN in %: 100%
[12]
  post-emergence activity against MATIN in %: 90%
[13]
  post-emergence activity against ECHCG in %: 90%
[14]
  post-emergence activity against SETVI in %: 90%
[15]; application rate 320 g/ha
  post-emergence activity against POAAN in %: 90%
[16]; application rate 320 g/ha
  pre-emergence activity against KCHSC in %: 90%

## CCS(=O)(=O)N1CS(=O)(=O)c2cc(C)c(-c3ccccc3F)nc21 [Example I-146, 3-(ethylsulfonyl)-5-(2-fluorophenyl)-6-methyl-2,3-dihydro[1,3]thiazolo[4,5-b]pyridine 1,1-dioxide]
[17]
  pre-emergence activity against GLXMA in % (crop plant damage): 0%
[18]
  crop plant damage (phytotoxicity) in % at 320 g/ha: 0%
[19]
  percent crop plant damage (phytotoxicity) on Zea mays, post-emergence at 320 g/ha: 0%
[20]
  percent crop plant damage at 320 g/ha: 0%
[21]
  pre-emergence activity against BRSNW in % (crop plant damage): 0%
[22]
  pre-emergence activity against TRZAS in % (crop plant damage): 0%
[23]
  percent crop plant damage (wheat, post-emergence) at 320 g/ha: 0%
[24]
  pre-emergence activity against ZEAMX in % (crop plant damage): 0%

## Cc1cc2c(nc1-c1cccc(F)c1F)N(C(=O)C1(C)CC(Cl)=NO1)CS2 (stereo not shown) [Example I-152]
[1]
  pre-emergence activity against ALOMY in %: 90%
[2]
  pre-emergence activity against DIGSA in %: 90%
[3]; application rate 1280 g/ha
  pre-emergence activity against ECHCG in %: 90%
[4]
  pre-emergence activity against SETVI in %: 100%
[5]
  pre-emergence activity against AMARE in %: 100%
[6]
  pre-emergence activity against VERPE in %: 90%
[7]; application rate 320 g/ha
  pre-emergence activity against ABUTH in %: 90%
[25]
  post-emergence activity against AMARE in %: 100%
[8]; application rate 1280 g/ha
  pre-emergence activity against MATIN in %: 90%
[26]
  post-emergence activity against STEME in %: 90%
[9]; application rate 1280 g/ha
  pre-emergence activity against LOLRI in %: 100%
[10]
  pre-emergence activity against STEME in %: 90%
[11]
  pre-emergence activity against POAAN in %: 100%
[27]
  post-emergence activity against ABUTH in %: 90%
[28]
  post-emergence activity against LOLRI in %: 90%
[29]
  post-emergence activity against KCHSC in %: 90%
[14]
  post-emergence activity against SETVI in %: 90%
[15]; application rate 1280 g/ha
  post-emergence activity against POAAN in %: 90%
[16]; application rate 1280 g/ha
  pre-emergence activity against KCHSC in %: 100%
